Test results from US9617250B2, “Pyridin-4-yl derivatives” (ACTELION PHARMACEUTICALS LTD., priority 2013, dated 2017).

Key:
human S1P3 receptor = human S1P3 receptor (Homo sapiens (Human), UniProt Q99500); test: GTPγS assay to determine EC50 values, S1P3; format: biochemical; details: comparison in words
circulating lymphocytes = test: Assessment of in vivo efficacy: circulating lymphocytes after oral administration; parameters: species or system rat; details: 6 h after oral administration of 10 mg/kg, normotensive male Wistar rats, compared to vehicle group
Procedure: The efficacy of the compounds of Formula (I) is assessed by measuring the circulating lymphocytes after oral administration of 3 to 30 mg/kg of a compound of Formula (I) to normotensive male Wistar rats. The animals are housed in climate-controlled conditions with a 12 h-light/dark cycle, and have free access to normal rat chow and drinking water. Blood is collected before and 3, 6 and 24 h after drug administration. Full blood is subjected to hematology using Advia Hematology system (Bayer Diagnostics, Zürich, Switzerland).
All data are presented as mean±SEM. Statistical analyses are performed by analysis of variance (ANOVA) using Statistica (StatSoft) and the Student-Newman-Keuls procedure for multiple comparisons. The null hypothesis is rejected when p<0.05.
Lymphocyte counts 6 h after oral administration have been measured for 2 out of 8 exemplified compounds and are in the range of −71% to −73% with an average of −72%.

Chain of human S1P3 receptor (Q99500 whole entry): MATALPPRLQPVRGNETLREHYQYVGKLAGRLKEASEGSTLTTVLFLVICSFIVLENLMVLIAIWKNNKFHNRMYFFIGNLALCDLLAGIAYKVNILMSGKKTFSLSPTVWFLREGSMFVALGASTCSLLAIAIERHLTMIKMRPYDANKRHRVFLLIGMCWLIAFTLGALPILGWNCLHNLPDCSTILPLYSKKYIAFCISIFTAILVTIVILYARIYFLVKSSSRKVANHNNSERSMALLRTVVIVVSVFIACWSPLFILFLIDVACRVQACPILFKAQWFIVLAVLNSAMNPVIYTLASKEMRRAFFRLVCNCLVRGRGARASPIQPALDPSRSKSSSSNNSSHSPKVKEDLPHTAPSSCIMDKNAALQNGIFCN

SMILES | potency on S1P3 receptor compared to closest analog in D1 (human S1P3 receptor) | Lymphocyte counts (circulating lymphocytes) [%]
CCCc1cc(-c2nc(-c3cc(C)c(OC[C@@H](O)CNC(=O)CO)c(CC)c3)no2)ccn1 [Example 2, (S)—N-(3-(2-ethyl-4-(5-(2-propylpyridin-4-yl)-1,2,4-oxadiazol-3-yl)-6-methyl-phenoxy)-2-hydroxypropyl)-2-hydroxyacetamide] | clearly less potent | 
CCc1cc(-c2noc(-c3ccnc(CC(C)C)c3)n2)cc(C)c1OC[C@@H](O)CNC(=O)CO [Example 5, (S)—N-(3-(2-Ethyl-4-(5-(2-isobutylpyridin-4-yl)-1,2,4-oxadiazol-3-yl)-6-methylphenoxy)-2-hydroxypropyl)-2-hydroxyacetamide] | significantly less potent | 
CCc1cc(-c2noc(-c3ccnc(C(CC)CC)c3)n2)cc(C)c1OC[C@@H](O)CNC(=O)CO [Example 7, (S)—N-(3-(2-ethyl-4-(5-(2-(pentan-3-yl)-pyridin-4-yl)-1,2,4-oxadiazol-3-yl)-6-methylphenoxy)-2-hydroxypropyl)-2-hydroxyacetamide] | significantly less potent | −71
CCc1cc(-c2noc(-c3ccnc(C4CCCC4)c3)n2)cc(C)c1OC[C@@H](O)CNC(=O)CO [Example 8, (S)—N-(3-(2-ethyl-4-(5-(2-cyclopentylpyridin-4-yl)-1,2,4-oxadiazol-3-yl)-6-methylphenoxy)-2-hydroxypropyl)-2-hydroxyacetamide] | significantly less potent | −73
